pIC50: −log10 of the molar value. The source made the active and inactive calls. How the calls were made is not given here.
What follows are compounds tested against glucose-6-phosphate dehydrogenase-6-phosphogluconolactonase (Plasmodium falciparum 3D7) (assay: inhibition of P. falciparum G6PD activity – biochemical, end-point NADPH detection, orthogonal assay, dose response (AID 540252)). Conditions: purified PfG6PD enzyme, NADPH direct detection.
O=C1/C(=C\c2ccc([N+](=O)[O-])cc2)CS(=O)(=O)C/C1=C/c1ccc([N+](=O)[O-])cc1 was tested, and the IC50 was > 80 µM (inactive).
CCNc1nc(NC(C)C)nc(NS(=O)(=O)c2ccc(Cl)cc2)n1 was tested, and the IC50 was > 80 µM (inactive).
With NCCc1cc(O)c(O)cc1O the IC50 was > 80 µM (inactive).
For [O-][N+](=Cc1ccccc1)c1ccc(Cl)cc1, the IC50 was > 80 µM (inactive).
COc1cc(N)c2ncccc2c1OC was tested, and the IC50 was > 80 µM (inactive).
With Cc1nc2c(o1)C(=O)c1ccccc1C2=Nc1ccccc1 the IC50 was > 80 µM (inactive).
For CCN1CCCC1CNC(=O)c1ccc2c(c1)NC(=O)/C(=C\c1ccc(C)cc1)S2 (stereo not drawn), the IC50 was > 80 µM (inactive).
CC1(OC(=O)C2CCCC2)C(=O)C=C2C=C(c3ccsc3)N(Cc3ccc4c(c3)OCO4)C=C2C1=O (stereo not drawn) was tested, and the IC50 was > 80 µM (inactive).
Cc1cc(O)c(C(C)C)cc1N=Cc1ccccc1[N+](=O)[O-] was tested, and the IC50 was > 80 µM (inactive).
For Cc1ccc(NC(=O)c2cc(N3C(=O)C=CC3=O)ccc2N2CCOCC2)cc1Cl, the IC50 was > 80 µM (inactive).
In the case of Cc1ccc(-c2c(C(=O)N/N=C/c3ccc(C)o3)nnn2-c2nonc2N)cc1, the IC50 was > 80 µM (inactive).
In the case of CCOC(=O)C1CCCN(C(=O)Cn2sc3nc(C)cc(C)c3c2=O)C1 (stereo not drawn), the IC50 was > 80 µM (inactive).
For C[n+]1c(-c2ccccc2)cc2c(=Cc3ccc([N+](=O)[O-])cc3)c3ccccc3n21, the IC50 was > 80 µM (inactive).
For Nc1ccc2c3c(cccc13)-c1ccccc1-2, the IC50 was > 80 µM (inactive).
With COc1cc(-c2cc(OC)c(O)c(OC)c2)cc(OC)c1O the IC50 was > 80 µM (inactive).
With c1ccc(OCc2nnc3n2N=C(c2ccccc2)CS3)cc1 the IC50 was > 80 µM (inactive).
Cc1ccc(/C=C/C(=O)NC2CCCCCCC2)o1 was tested, and the IC50 was > 80 µM (inactive).
For CCOC(=O)c1c(C2COc3ccccc3O2)csc1NC(=O)c1ccco1 (stereo not drawn), the IC50 was > 80 µM (inactive).
In the case of O=c1[nH]sc2cc(F)ccc12, the IC50 was > 80 µM (inactive).
For CCOc1ccccc1CNc1ccc(O)cc1, the IC50 was > 80 µM (inactive).
With COc1ccc(NS(=O)(=O)c2ccc(N3CCCC3)c(NC(=S)Nc3cccc(C)c3C)c2)cc1 the IC50 was > 80 µM (inactive).
For C[C@]12CC[C@@H]3c4cc(O)c(O)cc4CC[C@H]3[C@@H]1CC[C@@H]2O, the pIC50 was 4.42.
In the case of Cc1ccc(-c2c(C(=O)N/N=C/c3cccs3)nnn2-c2nonc2N)cc1, the IC50 was > 80 µM (inactive).
For Cn1c(=O)[nH]c(=O)c2c1nc(SCCN1CCCCC1)n2CCCc1ccccc1, the IC50 was > 80 µM (inactive).
In the case of Cc1cc(C)c[n+](C2=C([O-])c3ccccc3C(=O)/C2=N\S(=O)(=O)c2cccs2)c1, the IC50 was > 80 µM (inactive).
For COc1cc(/C=C/C(=O)c2ccc([N+](=O)[O-])o2)ccc1O, the IC50 was > 80 µM (inactive).
With COC1=C(Br)C(=O)c2nc(C)ccc2C1=O the IC50 was > 80 µM (inactive).
In the case of CCc1ccccc1N1CSC2=C(C#N)C(c3ccccc3F)CC(=O)N2C1 (stereo not drawn), the IC50 was > 80 µM (inactive).
In the case of Clc1ccc(N=c2ssnc2Cl)nc1, the IC50 was > 80 µM (inactive).
With COC(=O)[C@H](C)NC(=O)c1cc2c(cn1)[nH]c1ccccc12 the IC50 was > 80 µM (inactive).
With CN(C)S(=O)(=O)c1cccc(-n2sc3ccccc3c2=O)c1 the pIC50 was 4.87.
In the case of Cc1nc2ccc(Nc3nc4cc(S(=O)(=O)N5CCOCC5)ccc4o3)cc2s1, the IC50 was > 80 µM (inactive).
For CCCCOc1ccc(Cc2n[nH]c(=S)n2N)cc1, the IC50 was > 80 µM (inactive).
For N#Cc1ccc(Oc2cccc3cccnc23)c([N+](=O)[O-])c1, the IC50 was > 80 µM (inactive).
With c1cc(CNc2ccc3c(c2)OCO3)ccn1 the IC50 was > 80 µM (inactive).
COc1cc(NCCCn2cnc(C(=O)Nc3ccc(C)c(C)c3)n2)cc(OC)c1OC was tested, and the IC50 was > 80 µM (inactive).
With Cc1ccc(S(=O)(=O)N(C(=O)c2ccncc2)c2ccc(OC(=O)c3ccncc3)c3ccccc23)cc1 the IC50 was > 80 µM (inactive).
For Oc1ccc(C2C[C@H]3CC[C@@H]2C3)cc1O (stereo partly drawn), the pIC50 was 4.50.
O=[N+]([O-])c1c(NCCO)cc(Sc2nc3ccccc3s2)c2nonc12 was tested, and the IC50 was > 80 µM (inactive).
For Cc1cc(C)c2c(=O)n(CC(=O)NC3CCCC3)sc2n1, the IC50 was > 80 µM (inactive).
In the case of COC(=O)[C@H](CCSC)NC(=O)c1cc2c(cn1)[nH]c1ccccc12, the IC50 was > 80 µM (inactive).
CC(=O)c1cccc(NC(=O)c2cnn(-c3ccccc3)c2C)c1 was tested, and the IC50 was > 80 µM (inactive).
With COc1cc(N=Cc2c(CO)cnc(C)c2O)cc(OC)c1OC the IC50 was > 80 µM (inactive).
Cc1cc(O)c(C(C)C)cc1N=Cc1ccc([N+](=O)[O-])cc1 was tested, and the IC50 was > 80 µM (inactive).
For CCC1(C)CC(C(N)=S)CCO1 (stereo not drawn), the IC50 was > 80 µM (inactive).
O=C1CCN(c2ccccc2)N1 was tested, and the IC50 was > 80 µM (inactive).
With COc1c2ccoc2c(OCC=C(C)C)c2oc(=O)ccc12 the IC50 was > 80 µM (inactive).
For Cc1cc(O)c(C(C)C)cc1N=Cc1ccc(N(C)C)cc1, the IC50 was > 80 µM (inactive).
With CCc1nnc(NC(=O)c2ccc(Cl)nc2)s1 the IC50 was > 80 µM (inactive).
O=c1c2ccccc2sn1-c1ccc(S(=O)(=O)N2CCCC2)cc1 gave a pIC50 of 4.44.
COc1cccc(-c2c(C(=O)N/N=C/c3ccc(C)o3)nnn2-c2nonc2N)c1 was tested, and the IC50 was > 80 µM (inactive).
COc1cc(/C=C2\CC/C(=C\c3cc(OC)c(O)c(OC)c3)C2=O)cc(OC)c1O was tested, and the IC50 was > 80 µM (inactive).
O=C(Cc1ccccc1)NCC(=O)OCC(=O)c1ccc([N+](=O)[O-])cc1 gave a pIC50 of 4.19.
With Cc1ccc(-c2nn(C)c(=O)c3ccccc23)cc1CNC(=O)/C=C/c1ccccc1 the IC50 was > 80 µM (inactive).
For COc1ccc(CCn2c(NN=C3CCCC3)nc3c2c(=O)[nH]c(=O)n3C)cc1, the IC50 was > 80 µM (inactive).
CC(C)c1nnc(NC(=O)c2sc3ccccc3c2Cl)s1 was tested, and the IC50 was > 80 µM (inactive).
With Cc1cccc(C(=O)Nc2nnc(S(=O)(=O)N3CCOCC3)s2)c1 the IC50 was > 80 µM (inactive).
For Cc1ccccc1OCC(=O)N/N=C/c1ccc(Sc2nc3ccccc3s2)o1, the IC50 was > 80 µM (inactive).
In the case of CC(NC(=O)c1sc2cc([N+](=O)[O-])ccc2c1Cl)C(C)(C)C (stereo not drawn), the IC50 was > 80 µM (inactive).
For Cc1cc(C)c2c(=O)n(CC(=O)Nc3ccc(Br)c(C)c3)sc2n1, the IC50 was > 80 µM (inactive).
COc1cc(N)c2ncccc2c1Cl was tested, and the IC50 was > 80 µM (inactive).
For COc1cc(N)c2ncccc2c1SC, the IC50 was > 80 µM (inactive).
With NNC(=O)CN1C(c2ccccc2Br)=Nc2ccc(Br)cc2C1c1ccccc1 (stereo not drawn) the IC50 was > 80 µM (inactive).
With [O-]/[N+](=C\c1ccncc1)c1ccccc1 the IC50 was > 80 µM (inactive).
Cc1cc(=O)[nH]c(N/N=C/c2c(C)nn(-c3ccccc3)c2Cl)n1 gave a pIC50 of 4.70.
With Cc1nn(-c2ccccc2)c(Cl)c1/C=N/Nc1nc2ccccc2n1C the IC50 was > 80 µM (inactive).
Cc1c(N=C2C=C(Br)C(=O)C(Br)=C2)c(=O)n(-c2ccccc2)n1C was tested, and the IC50 was > 80 µM (inactive).
CC(Cc1ccc(O)c(O)c1)C(C)Cc1ccc(O)c(O)c1 (stereo not drawn) gave a pIC50 of 4.16.
COc1cc(NCCCn2ccc(NC(=O)OCc3ccccc3)nc2=O)cc(OC)c1OC was tested, and the IC50 was > 80 µM (inactive).
With COC(=O)CCC(=O)OC1(C)C(=O)C2=CN(c3ccccc3)C(c3ccc(OC)cc3)=CC2=C(Br)C1=O (stereo not drawn) the IC50 was > 80 µM (inactive).
In the case of Cc1cc(C)c2c(=N)c3ccccc3n(CCCCCCCCn3c4ccccc4c(=N)c4c(C)cc(C)nc43)c2n1, the IC50 was > 80 µM (inactive).
Compound Cc1ccc(S(=O)(=O)SC/C=C/CSS(=O)(=O)c2ccc(C)cc2)cc1 has a pIC50 of 4.19.
With Cc1ccc(S(=O)c2ccc([N+](=O)[O-])c3nonc23)cc1 (stereo not drawn) the pIC50 was 4.22.
For O=c1c2ccccc2sn1-c1nccs1, the pIC50 was 4.58.
With S=C(NN=Cc1ccccn1)N(Cc1ccccn1)Cc1ccccn1 the IC50 was > 80 µM (inactive).
With COc1cc(N=c2ssnc2Cl)c(OC)cc1Cl the pIC50 was 4.53.
For CCN1CCN(C(=S)c2ccc(Cl)c(Cl)c2)CC1, the IC50 was > 80 µM (inactive).
O=C(Cn1sc2ccccc2c1=O)Nc1ccccc1 was tested, and the pIC50 was 4.81.
COc1cccc(/C=N/NC(=O)CSc2cccc3cccnc23)c1 was tested, and the IC50 was > 80 µM (inactive).
For Cn1c(=O)c2c([nH]c(=S)n2CCCc2ccccc2)n(C)c1=O, the IC50 was > 80 µM (inactive).
For Cc1cc(N=NC(=O)c2ccccc2O)c2ccccc2c1O, the IC50 was > 80 µM (inactive).
For Cc1ccccc1-n1sc2cc(F)ccc2c1=O, the pIC50 was 5.09.
For O=C1C(Cl)=C(NCCc2ccccc2)C(=O)c2ccccc21, the IC50 was > 80 µM (inactive).
In the case of O=C1C=CC2=C3c4cc(O)c(O)cc4CC3(O)COC2=C1O (stereo not drawn), the IC50 was > 80 µM (inactive).
For C=CCSc1nc2sc3c(c2c(=O)n1CC)CCc1ccccc1-3, the IC50 was > 80 µM (inactive).
In the case of CNS(=O)(=O)c1ccc(-c2ccc(C=C3C(=O)NC(=O)NC3=O)o2)cc1, the IC50 was > 80 µM (inactive).
For O=C1C=CC(=O)N1c1ccc2c(c1)C(NC(=O)C(F)(F)F)c1ccccc1-2 (stereo not drawn), the pIC50 was 4.70.
COc1cc(-c2nnc3n2N=C(c2ccccc2)CS3)cc(OC)c1OC was tested, and the IC50 was > 80 µM (inactive).
COc1cc(/C=C2\SC(c3ccc(C)cc3)=NC2=O)cc(OC)c1O was tested, and the IC50 was > 80 µM (inactive).
In the case of N#Cc1ccc2c(=O)n(-c3ccccc3)sc2c1, the IC50 was > 80 µM (inactive).
For Cc1cc(C)c2c(=O)n(CC(=O)Nc3cccc(Cl)c3C)sc2n1, the IC50 was > 80 µM (inactive).
With O=C(Nc1sc2c(c1C(=O)O)CCC2)c1ccc(F)cc1 the IC50 was > 80 µM (inactive).
CN(C)c1cccc2c1c(NC(=O)c1ccc(F)cc1)nn2C was tested, and the IC50 was > 80 µM (inactive).
CSc1nnc(NC(=O)c2ccc3c(c2)OCO3)s1 was tested, and the IC50 was > 80 µM (inactive).
In the case of COc1cc(CNc2ccc3[nH]c(=O)[nH]c3c2)ccc1OCc1ccccc1, the IC50 was > 80 µM (inactive).
With O=c1c2cc(F)ccc2sn1-c1ccc(F)cc1 the pIC50 was 4.59.
With COc1cccc(-c2c(C(=O)N/N=C/c3ccc(C)s3)nnn2-c2nonc2N)c1 the IC50 was > 80 µM (inactive).
In the case of O=S(=O)(Nc1cc(Sc2ncn[nH]2)c(O)c2ccccc12)c1ccccc1, the IC50 was > 80 µM (inactive).
COc1ccc(-n2sc3ccccc3c2=O)cc1 showed a pIC50 of 4.88.
In the case of O=C1Nc2cc(C(=O)NCCCN3CCCC3)ccc2S/C1=C\c1ccccc1, the IC50 was > 80 µM (inactive).
With Cc1nnc(N/N=C/c2ccc(-c3ccccc3F)o2)n1N the IC50 was > 80 µM (inactive).
For Cn1cc(S(=O)(=O)CC(=O)N2CCc3ccccc32)c2ccccc21, the IC50 was > 80 µM (inactive).
Compound NS(=O)(=O)c1ccc(N/N=C/c2ccc(O)c(O)c2O)c([N+](=O)[O-])c1 has a pIC50 of 4.44.
